{"source": "ChEMBL document CHEMBL1201862", "about": "“PubChem BioAssay data set” (2004)", "key": {"[1]": {"experiment": "HEK293 Cytotoxicity Assay Measured in Cell-Based System Using Plate Reader - 7071-01_Inhibitor_Dose_CherryPick_Activity_Set2.", "assay_type": "functional"}, "[2]": {"tested_on": "HEK293", "experiment": "HEK293T cell cytotoxicity, dose response, cytotoxicity control, ATP luminescence, cherry-pick samples (AID 687005);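 also: cells exposed to compound for 48 hours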", "assay_type": "functional, cell-based", "settings": "Homo sapiens"}, "[3]": {"target": "T1, Zinc finger protein mex-5 (Caenorhabditis elegans, UniProt Q9XUB2)", "T1 sequence (Q9XUB2 whole entry)": "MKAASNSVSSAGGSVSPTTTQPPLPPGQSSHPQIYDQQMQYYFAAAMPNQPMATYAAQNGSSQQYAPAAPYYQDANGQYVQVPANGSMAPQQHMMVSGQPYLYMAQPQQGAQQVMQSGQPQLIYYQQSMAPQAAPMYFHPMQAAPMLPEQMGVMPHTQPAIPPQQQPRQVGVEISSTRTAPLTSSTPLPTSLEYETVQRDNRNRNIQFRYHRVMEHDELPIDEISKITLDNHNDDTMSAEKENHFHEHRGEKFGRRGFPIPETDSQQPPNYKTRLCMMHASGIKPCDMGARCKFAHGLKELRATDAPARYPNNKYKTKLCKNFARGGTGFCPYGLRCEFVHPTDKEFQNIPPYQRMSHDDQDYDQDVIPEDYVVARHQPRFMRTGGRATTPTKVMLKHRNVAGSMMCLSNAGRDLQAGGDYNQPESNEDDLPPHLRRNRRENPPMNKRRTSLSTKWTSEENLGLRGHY", "experiment": "MEX-5/TCR-2 RNA interaction inhibitors, dose response, biochemical, C. elegans, fluorescence polarization (AID 1960)"}, "[4]": {"experiment": "cells"}, "[5]": {"target": "T2, RNA-binding protein pos-1 (Caenorhabditis elegans, UniProt G5EF15)", "T2 sequence (G5EF15 whole entry)": "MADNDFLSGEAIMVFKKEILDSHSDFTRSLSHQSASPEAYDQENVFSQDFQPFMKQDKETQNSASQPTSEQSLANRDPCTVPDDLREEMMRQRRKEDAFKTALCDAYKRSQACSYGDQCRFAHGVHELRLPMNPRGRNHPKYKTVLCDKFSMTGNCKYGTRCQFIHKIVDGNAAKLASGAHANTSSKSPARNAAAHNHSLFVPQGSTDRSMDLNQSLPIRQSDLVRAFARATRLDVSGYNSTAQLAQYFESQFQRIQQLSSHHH", "experiment": "inhibitors of POS-1/mex-3 RNA binding, dose response, biochemical, fluorescence polarization (AID 1964);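 also: purified POS-1 fused to maltose binding protein made in E. coli; potency of compounds blocking POS-1 binding to fluorescent RNA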"}, "[6]": {"target": "Disintegrin and metalloproteinase domain-containing protein 17 (Homo sapiens, UniProt P78536)", "sequence (P78536 whole entry, the tested form may be a part)": "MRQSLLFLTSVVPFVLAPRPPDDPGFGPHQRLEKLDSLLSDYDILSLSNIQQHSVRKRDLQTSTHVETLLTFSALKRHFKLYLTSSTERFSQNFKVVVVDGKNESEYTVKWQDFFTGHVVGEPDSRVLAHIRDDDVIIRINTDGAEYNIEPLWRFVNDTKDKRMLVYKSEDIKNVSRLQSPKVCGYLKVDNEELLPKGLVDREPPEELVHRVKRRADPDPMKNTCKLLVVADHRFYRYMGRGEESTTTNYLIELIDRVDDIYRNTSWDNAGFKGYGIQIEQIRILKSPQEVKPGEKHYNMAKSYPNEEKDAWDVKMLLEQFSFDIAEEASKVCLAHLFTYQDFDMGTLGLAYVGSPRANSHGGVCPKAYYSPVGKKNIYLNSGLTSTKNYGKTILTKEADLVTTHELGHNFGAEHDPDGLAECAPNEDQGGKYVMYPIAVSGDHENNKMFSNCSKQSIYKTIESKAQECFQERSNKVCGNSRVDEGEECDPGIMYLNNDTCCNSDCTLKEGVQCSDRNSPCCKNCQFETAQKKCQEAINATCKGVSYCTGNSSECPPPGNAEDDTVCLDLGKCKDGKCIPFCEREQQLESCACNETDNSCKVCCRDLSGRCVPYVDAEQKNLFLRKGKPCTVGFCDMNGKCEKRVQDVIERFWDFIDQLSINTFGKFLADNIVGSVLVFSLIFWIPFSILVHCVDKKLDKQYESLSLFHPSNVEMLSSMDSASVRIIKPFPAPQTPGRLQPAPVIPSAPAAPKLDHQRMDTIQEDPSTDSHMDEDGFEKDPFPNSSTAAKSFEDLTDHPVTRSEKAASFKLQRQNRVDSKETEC", "experiment": "ADAM17 protease inhibitors, dose response, counter-screen for ADAM10 exosite inhibitor project, biochemical, quenched FRET substrate (AID 743253)"}, "[7]": {"experiment": "ADAM10 inhibitors, peptide cleavage, dose response, biochemical, QFRET (AID 743254);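 also: ADAM10 enzyme with the DM2 quenched FRET peptide as substrate; EDANS fluorescence gain as the protease cuts the substrate; inhibitor potency against ADAM10 proteolytic activity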"}, "[8]": {"tested_on": "HeLa", "experiment": "HeLa cell cytotoxicity, dose response, cytotoxicity control, ATP luminescence, cherry-pick samples (AID 687004)", "assay_type": "functional, cell-based", "settings": "Homo sapiens"}, "[9]": {"target": "T3, Endoribonuclease toxin MazF (Escherichia coli K-12, UniProt P0AE70)", "T3 sequence (P0AE70 whole entry)": "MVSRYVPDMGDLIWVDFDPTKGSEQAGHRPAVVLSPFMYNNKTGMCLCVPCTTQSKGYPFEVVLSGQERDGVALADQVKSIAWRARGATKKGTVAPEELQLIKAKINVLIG", "experiment": "MazF toxin RNase activators, dose response, biochemical, fluorescence, single-stranded RNA substrate, uHTS hits (AID 588481)", "assay_type": "functional"}, "[10]": {"target": "T4, Sentrin-specific protease 6 (Homo sapiens, UniProt Q9GZR1)", "T4 sequence (Q9GZR1 whole entry)": "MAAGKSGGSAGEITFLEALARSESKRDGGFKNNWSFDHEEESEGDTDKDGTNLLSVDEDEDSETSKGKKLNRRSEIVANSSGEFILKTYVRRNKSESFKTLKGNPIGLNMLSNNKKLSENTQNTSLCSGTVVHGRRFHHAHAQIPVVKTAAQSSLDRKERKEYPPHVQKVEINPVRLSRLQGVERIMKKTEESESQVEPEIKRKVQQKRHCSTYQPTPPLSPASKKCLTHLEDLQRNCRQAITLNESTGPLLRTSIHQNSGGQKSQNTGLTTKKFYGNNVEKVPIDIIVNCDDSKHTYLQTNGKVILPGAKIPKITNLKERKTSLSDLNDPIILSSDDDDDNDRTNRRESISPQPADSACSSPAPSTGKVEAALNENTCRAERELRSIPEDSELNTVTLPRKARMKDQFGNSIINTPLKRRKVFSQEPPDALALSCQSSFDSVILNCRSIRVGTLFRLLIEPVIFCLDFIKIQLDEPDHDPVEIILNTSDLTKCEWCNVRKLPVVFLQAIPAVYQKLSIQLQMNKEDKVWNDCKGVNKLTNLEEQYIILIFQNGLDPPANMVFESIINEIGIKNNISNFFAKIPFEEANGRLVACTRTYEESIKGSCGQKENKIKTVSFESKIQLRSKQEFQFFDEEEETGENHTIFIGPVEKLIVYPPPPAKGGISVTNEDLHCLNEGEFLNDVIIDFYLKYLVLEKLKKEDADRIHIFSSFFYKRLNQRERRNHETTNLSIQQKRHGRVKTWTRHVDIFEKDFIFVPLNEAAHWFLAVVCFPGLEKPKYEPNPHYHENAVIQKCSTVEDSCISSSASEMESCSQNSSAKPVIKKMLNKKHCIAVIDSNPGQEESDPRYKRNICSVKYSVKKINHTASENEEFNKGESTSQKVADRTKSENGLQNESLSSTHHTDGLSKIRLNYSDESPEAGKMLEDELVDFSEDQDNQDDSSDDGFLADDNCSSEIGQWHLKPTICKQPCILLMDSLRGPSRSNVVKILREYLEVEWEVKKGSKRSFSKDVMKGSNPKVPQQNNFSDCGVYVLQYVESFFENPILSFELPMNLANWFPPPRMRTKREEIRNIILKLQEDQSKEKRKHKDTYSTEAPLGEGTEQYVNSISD", "assay_type": "functional"}, "[11]": {"target": "T5, Oxysterols receptor LXR-beta (Homo sapiens, UniProt P55055)", "T5 sequence (P55055 whole entry)": "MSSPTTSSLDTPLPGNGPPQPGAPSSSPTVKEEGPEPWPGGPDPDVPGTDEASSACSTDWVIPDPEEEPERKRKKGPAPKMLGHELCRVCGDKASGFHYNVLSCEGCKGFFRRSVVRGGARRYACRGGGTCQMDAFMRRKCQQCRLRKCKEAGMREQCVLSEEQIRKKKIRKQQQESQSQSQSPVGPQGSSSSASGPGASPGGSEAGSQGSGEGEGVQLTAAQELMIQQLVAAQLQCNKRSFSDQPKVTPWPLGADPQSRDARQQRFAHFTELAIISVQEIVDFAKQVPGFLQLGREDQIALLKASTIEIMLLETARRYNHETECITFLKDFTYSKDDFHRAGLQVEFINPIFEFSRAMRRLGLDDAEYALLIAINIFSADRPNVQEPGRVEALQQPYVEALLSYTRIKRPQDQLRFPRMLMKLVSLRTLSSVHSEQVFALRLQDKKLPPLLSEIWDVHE", "experiment": "LXR agonists, Gal4 luciferase reporter, dose response, counter-screen for ssDAF-12 agonist project, cell-based, luminescence, HEK293, S. stercoralis campaign (AID 720737)", "assay_type": "functional", "settings": "read-out: IC50 (the source's name)"}, "[12]": {"experiment": "cells", "remark": "listed apart in the source"}, "[13]": {"target": "T5, Oxysterols receptor LXR-beta", "assay_type": "functional, cell-based"}, "[14]": {"experiment": "Luminescence-based cell-based high throughput dose response assay to identify activators of the DAF-12 from the parasite S. stercoralis (ssDAF-12).", "assay_type": "functional"}, "[15]": {"target": "T5, Oxysterols receptor LXR-beta", "assay_type": "functional, cell-based", "remark": "listed apart in the source"}, "[16]": {"target": "T6, Sentrin-specific protease 7 (Homo sapiens, UniProt Q9BQF6)", "T6 sequence (Q9BQF6 whole entry)": "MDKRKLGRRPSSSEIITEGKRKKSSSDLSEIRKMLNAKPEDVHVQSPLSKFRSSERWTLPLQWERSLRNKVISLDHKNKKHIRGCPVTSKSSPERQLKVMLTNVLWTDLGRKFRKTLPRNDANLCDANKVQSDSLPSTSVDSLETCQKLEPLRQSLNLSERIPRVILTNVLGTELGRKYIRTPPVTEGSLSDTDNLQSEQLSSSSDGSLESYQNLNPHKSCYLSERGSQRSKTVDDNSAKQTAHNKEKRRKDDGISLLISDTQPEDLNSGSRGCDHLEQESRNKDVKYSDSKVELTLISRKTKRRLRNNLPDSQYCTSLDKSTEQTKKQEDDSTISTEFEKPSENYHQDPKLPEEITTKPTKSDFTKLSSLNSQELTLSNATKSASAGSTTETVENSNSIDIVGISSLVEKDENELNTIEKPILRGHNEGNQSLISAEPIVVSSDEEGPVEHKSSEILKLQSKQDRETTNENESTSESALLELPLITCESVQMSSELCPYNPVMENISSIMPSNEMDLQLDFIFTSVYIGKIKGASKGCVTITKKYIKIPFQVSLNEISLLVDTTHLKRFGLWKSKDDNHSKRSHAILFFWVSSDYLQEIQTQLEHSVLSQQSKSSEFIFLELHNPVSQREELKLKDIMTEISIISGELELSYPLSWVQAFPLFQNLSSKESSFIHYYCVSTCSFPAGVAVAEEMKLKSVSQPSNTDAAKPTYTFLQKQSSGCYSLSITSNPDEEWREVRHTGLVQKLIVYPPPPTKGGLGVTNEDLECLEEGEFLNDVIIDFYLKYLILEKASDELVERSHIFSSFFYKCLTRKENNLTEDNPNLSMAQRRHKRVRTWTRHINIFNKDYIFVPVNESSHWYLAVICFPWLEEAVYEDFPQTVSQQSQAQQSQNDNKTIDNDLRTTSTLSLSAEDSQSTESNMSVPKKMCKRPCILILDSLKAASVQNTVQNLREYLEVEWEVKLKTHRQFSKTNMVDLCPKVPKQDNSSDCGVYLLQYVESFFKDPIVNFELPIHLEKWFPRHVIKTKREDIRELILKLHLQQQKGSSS", "assay_type": "functional"}, "[17]": {"target": "T7, Sentrin-specific protease 8 (Homo sapiens, UniProt Q96LD8)", "T7 sequence (Q96LD8 whole entry)": "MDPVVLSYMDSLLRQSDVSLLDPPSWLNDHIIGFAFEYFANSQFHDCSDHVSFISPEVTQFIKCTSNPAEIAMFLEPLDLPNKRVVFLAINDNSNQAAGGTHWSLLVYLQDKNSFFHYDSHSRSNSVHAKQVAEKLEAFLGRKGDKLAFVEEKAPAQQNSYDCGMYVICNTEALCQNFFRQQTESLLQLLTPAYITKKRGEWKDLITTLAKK", "assay_type": "functional"}, "[18]": {"target": "T3, Endoribonuclease toxin MazF", "experiment": "fluorescent RNA oligo signal without MazF, dose response, counter-screen for MazEF activator project, biochemical, fluorescence, single-stranded RNase substrate (AID 588502)", "assay_type": "functional"}, "[19]": {"target": "T8, Caspase-3 (Homo sapiens, UniProt P42574)", "T8 sequence (P42574 whole entry)": "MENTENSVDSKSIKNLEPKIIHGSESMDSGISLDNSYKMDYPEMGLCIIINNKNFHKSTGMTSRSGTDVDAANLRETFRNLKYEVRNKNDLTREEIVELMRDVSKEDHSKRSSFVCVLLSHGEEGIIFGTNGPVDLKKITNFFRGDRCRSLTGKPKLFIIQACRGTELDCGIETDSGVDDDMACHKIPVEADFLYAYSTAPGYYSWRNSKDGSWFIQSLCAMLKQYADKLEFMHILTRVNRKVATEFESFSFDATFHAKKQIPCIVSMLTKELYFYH", "assay_type": "functional"}}, "note": "Calls of active or inactive are those of the source."}
{"smiles": "Cc1ccc(C(=O)NC(=S)Nc2ccc(N3CCOCC3)cc2)cc1", "values": [{"measurement": "AC50", "setting": "[1]", "result": "20.1 µM (active)"}, {"measurement": "AC50", "setting": "[2]", "result": "20.1 µM (active)"}]}
{"smiles": "CCN(CC)c1ccc2cc(C#N)c(=O)oc2c1", "values": [{"measurement": "EC50", "setting": "[3]", "result": "63 µM (inconclusive)"}, {"measurement": "AC50", "setting": "[4]", "result": "0.575 µM (active)"}, {"measurement": "EC50", "setting": "[5]", "result": "76.3 µM (active)"}]}
{"smiles": "COc1ccccc1NS(=O)(=O)c1cc(NC(=O)c2cc(F)c(F)c(F)c2F)ccc1N1CCOCC1", "values": [{"measurement": "IC50", "setting": "[6]", "result": "> 69.5 µM (inactive)"}, {"measurement": "IC50", "setting": "[7]", "result": "> 69.5 µM (inactive)"}]}
{"smiles": "OC(c1ccccc1)(c1nc(-c2ccc3c(c2)OCO3)cs1)C(F)(F)F", "note": "(stereo not drawn)", "values": [{"measurement": "IC50", "setting": "[6]", "result": "> 69.5 µM (inactive)"}, {"measurement": "IC50", "setting": "[7]", "result": "> 7.73 µM (active)"}]}
{"smiles": "C[C@@H]1CN([C@H](C)CO)C(=O)c2cccc(NC(=O)Nc3ccccc3)c2O[C@@H]1CN(C)Cc1ccc(Cl)c(Cl)c1", "values": [{"measurement": "AC50", "setting": "[8]", "result": "45.7 µM (active)"}, {"measurement": "AC50", "setting": "[1]", "result": "9.06 µM (active)"}, {"measurement": "AC50", "setting": "[2]", "result": "9.06 µM (active)"}]}
{"smiles": "C(=N\\NC1=Nc2cccc3cccc1c23)/c1ccccc1", "values": [{"measurement": "EC50", "setting": "[9]", "result": "> 99 µM (inactive)"}, {"measurement": "IC50", "setting": "[10]", "result": "> 100 µM (inactive)"}, {"measurement": "EC50", "setting": "[11]", "result": "> 67.5 µM (inactive)"}, {"measurement": "EC50", "setting": "[12]", "result": "> 67.5 µM (inactive)"}, {"measurement": "EC50", "setting": "[13]", "result": "> 67.5 µM (inactive)"}, {"measurement": "IC50", "setting": "[14]", "result": "> 67.5 µM (inactive)"}, {"measurement": "EC50", "setting": "[15]", "result": "> 67.5 µM (inactive)"}, {"measurement": "IC50", "setting": "[16]", "result": "5.42 µM (active)"}, {"measurement": "IC50", "setting": "[17]", "result": "> 100 µM (inactive)"}, {"measurement": "EC50", "setting": "[18]", "result": "> 99 µM (inactive)"}, {"measurement": "IC50", "setting": "[19]", "result": "30.1 µM (active)"}]}
